According to ChEMBL document CHEMBL5050861 (2021):
In brackets after ≈: the same amount, converted by molar mass.

Key:
[1] = Permeability of compound by PAMPA assay; type: ADME; details: read-out: permeability
[2] = Stability of compound in rat microsomes assessed as half-life; type: ADME, Microsome
[3] = Inhibition of recombinant mouse GALK1 using ATP as substrate incubated for 1 hr and measured by Kinase-Glo assay
[4] = Kinetic aqueous solubility of the compound; type: physicochemical; details: buffer; read-out: Kinetic_solubility

| Papp [1] [×10⁻⁶ cm/s] | half-life [2] [min] | IC50 ([3]; read-out: IC50) [µM] | solubility kinetic [4] [µg/mL] | IC50 [3] | SMILES |
| --- | --- | --- | --- | --- | --- |
| < 21.9 | 9.22 | 6.85 | < 1 | – | CCn1cc(CNC(=O)C2=C(C)NC(Nc3nc4ccc(F)cc4o3)=NC2c2ccc(C)cc2Cl)cn1 (centres undefined) |
| < 1 | > 30 | 30.6 | > 76 | – | CC1=C(C(=O)Nc2cc(C(=O)O)ccn2)C(c2ccccc2Cl)N=C(Nc2nc3c(N)cccc3o2)N1 (centres undefined) |
| < 6.8 | > 30 | 4.85 | < 1 | – | CC1=C(C(=O)Nc2cc(C#N)ccn2)C(c2ccccc2Cl)N=C(Nc2nc3ccc(F)cc3o2)N1 (centres undefined) |
| < 1 | > 30 | 3.85 | 28.6 (≈ 42.9 µM) | – | CC1=C(C(=O)Nc2cc(C(=O)O)ccn2)C(c2ccc(-c3ccc(C(F)(F)F)nc3)cc2Cl)N=C(Nc2nc3ccc(F)cc3o2)N1 (centres undefined) |
| < 18.7 | 25.3 | 13.7 | < 1 | – | CC1=C(C(=O)Nc2ccc(C#N)cc2)C(c2ccccc2Cl)N=C(Nc2nc3ccccc3o2)N1 (centres undefined) |
| < 1 | > 30 | 34.4 | > 84 | – | CC1=C(C(=O)Nc2cc(C(=O)O)ccn2)C(c2cccc([N+](=O)[O-])c2Cl)N=C(Nc2nc3ccc(F)cc3o2)N1 (centres undefined) |
| < 1.5 | > 30 | 10.9 | < 1 | – | CC1=C(C(=O)Nc2nnc(-c3cccnc3)s2)C(c2ccccc2Cl)N=C(Nc2nc3cc(C)ccc3o2)N1 (centres undefined) |
| < 1 | > 30 | 1.72 | 55.6 (≈ 107 µM) | – | CC1=C(C(=O)Nc2cc(C(=O)O)ccn2)[C@H](c2ccccc2Cl)N=C(Nc2nc3ccc(F)cc3o2)N1 |
| > 30 | – | 6.11 | > 67 | – | CNCCNC(=O)C1=C(C)NC(Nc2nc3ccc(F)cc3o2)=NC1c1ccccc1Cl (centres undefined) |
| < 10.3 | > 30 | – | < 1 | Not Active | CC1=C(C(=O)Nc2nnc(-c3cccnc3)s2)C(c2ccccc2Cl)N=C(Nc2nc3ccc(Cl)cc3o2)N1 (centres undefined) |
| < 1 | > 30 | 7.69 | 73.9 (≈ 122 µM) | – | CC1=C(C(=O)Nc2cc(C(=O)O)ccn2)C(c2ccccc2Cl)N=C(Nc2nc3ccccc3o2)N1C(=O)c1ccccc1 (centres undefined) |
| < 1 | > 30 | 1.22 | > 90 | – | CC1=C(C(=O)Nc2cc(C(=O)O)ccn2)C(c2ccc(-c3ccc(C)nc3)cc2Cl)N=C(Nc2nc3ccc(F)cc3o2)N1 (centres undefined) |
| < 4.7 | 30 | 7.69 | 23.9 (≈ 47.3 µM) | – | O=C1CC(C(=O)N2CCNCC2)CC2=C1C(c1ccccc1Cl)N=C(Nc1nc3ccccc3o1)N2 (centres undefined) |
| < 14.5 | > 30 | 9.68 | – | – | CC1=C(C(=O)Nc2ccc(O)cc2)C(c2ccccc2Cl)N=C(Nc2nc3ccccc3o2)N1 (centres undefined) |
| < 21.9 | 30.9 | 4.32 | – | – | COC(=O)c1ccnc(NC(=O)C2=C(C)NC(Nc3nc4ccc(F)cc4o3)=N[C@H]2c2ccccc2Cl)c1 |
| < 4.9 | > 30 | – | < 1 | – | CC1=C(C(=O)Nc2cc(C(=O)O)ccn2)C(c2ccc(-c3ccccc3)cc2Cl)N=C(Nc2nc3ccc(F)cc3o2)N1 (centres undefined) |
| < 19.3 | 5.19 | 10.9 | – | – | CC1=C(C(=O)NCc2ccccc2O)C(c2ccccc2Cl)N=C(Nc2nc3ccccc3o2)N1 (centres undefined) |
| – | > 30 | 12.2 | 53.3 (≈ 96.9 µM) | – | COc1ccc(C(=O)O)cc1NC(=O)C1=C(C)NC(Nc2nc3ccc(F)cc3o2)=NC1c1ccccc1Cl (centres undefined) |
| – | > 30 | 9.68 | < 1 | – | CC1=C(C(=O)Nc2cc(CO)ccn2)C(c2ccccc2Cl)N=C(Nc2nc3ccccc3o2)N1 (centres undefined) |
| – | > 30 | 12.2 | < 1 | – | CC1=C(C(=O)Nc2nncs2)C(c2ccccc2C(F)(F)F)N=C(Nc2nc3ccccc3o2)N1 (centres undefined) |
| – | 27.1 | 21.7 | < 1 | – | O=C1NCCC2=C1C(c1ccccc1Cl)N=C(Nc1nc3ccccc3o1)N2 (centres undefined) |
| < 7.4 | 24.3 | 86.3 | – | – | COC(=O)c1ccnc(NC(=O)C2=C(C)NC(Nc3nc4ccc(F)cc4o3)=N[C@@H]2c2ccccc2Cl)c1 |

| Papp [1] [×10⁻⁶ cm/s] | half-life [2] [min] | IC50 ([3]; read-out: IC50) [µM] | solubility kinetic [4] [µg/mL] | IC50 [3] | SMILES |
| --- | --- | --- | --- | --- | --- |
| – | > 30 | 13.7 | < 1 | – | COC(=O)c1csc(NC(=O)C2=C(C)NC(Nc3nc4ccccc4o3)=NC2c2ccccc2Cl)n1 (centres undefined) |
| – | > 30 | 10.9 | 25.4 (≈ 48.9 µM) | – | CC1=C(C(=O)Nc2cc(C(=O)O)ccc2F)C(c2ccccc2Cl)N=C(Nc2nc3ccccc3o2)N1 (centres undefined) |
| – | 10.2 | 4.85 | 4.23 (≈ 8.56 µM) | – | COCCNC(=O)C1CC(=O)C2=C(C1)NC(Nc1nc3ccccc3o1)=NC2c1ccccc1Cl (centres undefined) |
| – | 7.46 | 12.2 | < 1 | – | COC(=O)Cc1ccc(NC(=O)C2=C(C)NC(Nc3nc4ccccc4o3)=NC2c2ccccc2Cl)cc1 (centres undefined) |
| – | > 30 | > 1.93 | > 81 | – | COc1ccc(C2N=C(Nc3nc4cccc(N)c4o3)NC(C)=C2C(=O)Nc2cc(C(=O)O)ccn2)c(Cl)c1 (racemic) |
| – | > 30 | 38.5 | 7.3 (≈ 13.3 µM) | – | CC1=C(C(=O)Nc2cc(C(=O)O)ccn2)C(c2ccccc2Cl)N=C(Nc2nc3cccc([N+](=O)[O-])c3o2)N1 (centres undefined) |
| – | 17.9 | 17.2 | < 1 | – | CC1=C(C(=O)Nc2ccccc2O)C(c2ccccc2Cl)N=C(Nc2nc3ccccc3o2)N1 (centres undefined) |
| – | 2.99 | 3.43 | < 1 | – | CC1=C(C(=O)NCc2cnn(C)c2C)C(c2ccc(C)cc2Cl)N=C(Nc2nc3ccc(F)cc3o2)N1 (centres undefined) |
| – | > 30 | 15.3 | < 1 | – | CC(C)C1=C(C(=O)Nc2nncs2)C(c2ccccc2Cl)N=C(Nc2nc3ccccc3o2)N1 (centres undefined) |
| – | 13.8 | 15.3 | < 1 | – | CC1=C(C(=O)NCc2ccc(CO)cc2)C(c2ccccc2Cl)N=C(Nc2nc3ccccc3o2)N1 (centres undefined) |
| – | > 30 | 12.2 | < 1 | – | COC(=O)c1cccc(NC(=O)C2=C(C)NC(Nc3nc4ccccc4o3)=NC2c2ccccc2Cl)n1 (centres undefined) |
| – | > 30 | 17.2 | < 1 | – | CC1=C(C(=O)Nc2cccc(C(N)=O)c2)C(c2ccccc2Cl)N=C(Nc2nc3ccccc3o2)N1 (centres undefined) |
| – | > 30 | 19.3 | < 1 | – | CC1=C(C(=O)Nc2nc(CO)cs2)C(c2ccccc2Cl)N=C(Nc2nc3ccccc3o2)N1 (centres undefined) |
| – | > 30 | 12.2 | < 1 | – | CC1=C(C(=O)Nc2cccc(F)c2)C(c2ccccc2Cl)N=C(Nc2nc3ccccc3o2)N1 (centres undefined) |
| – | > 30 | 3.43 | > 72 | – | CC1=C(C(=O)NCc2cnn(C)c2)C(c2ccccc2Cl)N=C(Nc2nc3cccc(N)c3o2)N1 (centres undefined) |
| – | > 30 | 21.7 | < 1 | – | CC1=C(C(=O)Nc2nnc(C(F)(F)F)s2)C(c2ccccc2Cl)N=C(Nc2nc3ccccc3o2)N1 (centres undefined) |
| – | 2.66 | 4.85 | < 1 | – | CC1=C(C(=O)NCc2c(C)nn(C)c2C)C(c2ccc(C)cc2Cl)N=C(Nc2nc3ccc(F)cc3o2)N1 (centres undefined) |
| – | 30.8 | – | < 1 | Not Active | CC1=C(C(=O)Nc2ccc(Cl)cn2)C(c2ccccc2Cl)N=C(Nc2nc3ccccc3o2)N1 (centres undefined) |
| – | 4.68 | 6.85 | < 1 | – | COC(=O)c1ccc(NC(=O)C2=C(C)NC(Nc3nc4ccccc4o3)=NC2c2ccccc2Cl)cn1 (centres undefined) |
| – | 18.4 | 5.44 | < 1 | – | COC(=O)c1ccnc(NC(=O)C2=C(C)NC(Nc3nc4ccccc4o3)=NC2c2ccccc2Cl)c1 (centres undefined) |
| – | 1.4 | 12.2 | < 1 | – | COc1ccccc1CNC(=O)C1=C(C)NC(Nc2nc3ccccc3o2)=NC1c1ccccc1Cl (centres undefined) |
| – | 11.3 | 3.06 | 2.43 (≈ 4.68 µM) | – | CCn1cc(CNC(=O)C2=C(C)NC(Nc3nc4cccc(N)c4o3)=NC2c2ccc(C)cc2Cl)cn1 (centres undefined) |
